From ChEMBL document CHEMBL4382257, “Identification and Profiling of Hydantoins-A Novel Class of Potent Antimycobacterial DprE1 Inhibitors” (J Med Chem, 2018)

Columns and labels:
[1] = Intrinsic clearance in mouse liver microsomes at 0.5 uM after 30 mins in presence of NADPH by LC-MS/MS analysis; type: ADME, Microsome; settings: 0.5 h
physchem = settings: buffer, pH 7.4, logD
[2] = Intrinsic clearance in human liver microsomes at 0.5 uM after 30 mins in presence of NADPH by LC-MS/MS analysis; type: ADME, Microsome; settings: 0.5 h
[3] = buffer, pH 7.4

| SMILES | CLH [1] [mL/min/g] | chromatographic logD (physchem) | CLH [2] [mL/min/g] | logD [3] |
| --- | --- | --- | --- | --- |
| CC1(c2ccc(N3CCOC3=O)cc2)NC(=O)N(CC(=O)c2ccc(F)cc2F)C1=O (stereo not given) | 3.54 | 3.94 | < 0.4 |  |
| CC1(c2ccc(S(C)(=O)=O)cc2)NC(=O)N(CC(=O)c2ccc(F)cc2F)C1=O (stereo not given) | 2.5 | 3.64 | 0.46 |  |
| CC1(c2ccc(NS(C)(=O)=O)cc2)NC(=O)N(CC(=O)c2ccc(F)cc2F)C1=O (stereo not given) | 3.29 | 3.57 | 0.47 |  |
| CC1(c2ccc(C#N)cc2)NC(=O)N(CC(=NO)c2ccc(F)cc2F)C1=O (stereo in doubt; 43a) |  |  |  | 3.38 |
